Results: patent publication US7943606B2, “Compositions and methods to control abnormal cell growth” (CanCure Laboratories, LLC, priority 2005, dated 2011)

Assays:
MXT tumor = assay: MXT mouse mammary tumor model: tumor volume and survival; type: in vivo; details: Example 31
Excerpt: Tumors were developed in first generation hybrid BDF1 (C57 B1 female×DBA/2 male) adult female mice kept at specified pathogen free (SPF) hygienic level. Suspensions of HL-60 human leukemia cells, or approximately 0.1 cm^3 volume of tumor tissue derived from HT-168 human melanoma, PC-3 human prostate adenocarcinoma, T47D human breast carcinoma, MXT mouse mammary cancer, or mouse B16 melanoma cells were implanted subcutaneously to develop the tumors. After 12-18 days when the tumor-bearing mice were first treated, the size of the tumors was in the 0.2-0.4 cm^3 range. All compounds used were dissolved in physiological (0.9%) saline (NaCl), and the agents, alone or in combinations, were applied subcutaneously or intraperitoneally in 50 μl volume. Tumor volume was determined by calipers in three dimensions; this technique is well known to one having ordinary skill in the art. Tumor volume was calculated according to the generally accepted formula: V=a^2×b×π/6, where “a” and “b” mean the shortest and longest diameter, respectively, of the measured tumor.
The mouse mammary MXT tumor was developed as described above. On day 7 after transplantation of tumor cells, the animals were either remained untreated (group 1) or were treated with 2 mg/kg of CisPt alone (Group 2), or 4 mg/kg of CisPt alone (Group 3), or 4.6 mg/kg of CCDTHT alone (Group 4), or 2 mg/kg of CisPt+4.6 mg/kg of CCDTHT (Group 5), or 4 mg/kg of CisPt+4.6 mg/kg of CCDTHT (Group 6). CCDTHT and CisPt were administered subcutaneously and intraperitoneally, respectively, once daily for 10 days, including a 2-day rest period after 5 days of treatment (i.e., the last treatment was on day 19). Each group consisted of 7 animals, and the mean values±std. dev. for tumor volumes and body weight are shown in TABLE 4 and TABLE 5, respectively. While in this tumor model CCDTHT alone reduced the tumor volume less effectively than in the human tumor models, it clearly added to the tumor volume-reducing effect of CisPt (TABLE 4). A dramatic reduction in tumor volume was particularly evident in Group 6 (4 mg/kg CisPt+4.6 mg/kg CCDTHT).
The mouse mammary MXT tumor model was developed and treated as described above. On day 7 the animals were either remained untreated (Group 1) or were treated with 3 mg/kg of CisPt (Group 2) or 3 mg/kg of CisPt+15 mg/kg of highly purified PALP (Group 3). CisPt and PALP were administered intraperitoneally and subcutaneously, respectively, seven times on every second day (i.e., treatments were terminated on day 21). Each group included 7 animals; the mean values±std. dev. for tumor volumes and body weight are shown in TABLE 6 and TABLE 7, respectively.
The mouse mammary MXT tumor model was developed and treated as described above. On day 7 the animals either remained untreated (Group 1) or were treated with 3 mg/kg CisPt (Group 2), 3 mg/kg CisPt+4.6 mg/kg of CCDTHT (Group 3), or 3 mg/kg CisPt+4.6 mg/kg of CCDTHT+15 mg/kg highly purified PALP (Group 4). CisPt was administered intraperitoneally 9-times once every second day; CCDTHT was administered for 15 days once daily; and PALP was administered 3 times every 3rd day. In each group 7 mice were included. The mean values±std. dev. for tumor volumes and body weights are shown in TABLE 9 and TABLE 10, respectively.

[1] = test system: HL-60, HT-168, PC-3 and T47D cells; assay: Viability of four human cancer cell types by Trypan blue exclusion; type: cell-based
Description: PC-3 human prostate adenocarcinoma cells were cultured in 12-well plates in Ham's F12 cell culture medium supplemented with 7% fetal bovine serum; the medium was changed for fresh 10% medium 2 hours prior to treatments. HL-60 human leukemia cells (in flasks) and HT 168 human melanoma cells were cultured in RPMI 1640 medium supplemented with 10% FCS; treatment of HL-60 and HT-168 cells were performed in flasks and 12-well plates, respectively. T47D cells were cultured in 12-well plates in RPMI 1640 medium supplemented with 2 mM L-glutamine, 10 mM Hepes, 1 mM sodium pyruvate, 4.5 g/L glucose, 1.5 g/L sodium bicarbonate, 0.2 I.U. bovine insulin/ml, and 10% fetal bovine serum; the medium was changed for fresh 10% serum-containing medium 2 hours prior to treatments. All cells were incubated for 96 hours in the absence (□) or presence of 25 μM CCDTHT ? , 50 μM CCDTHT ? , or 75 μM CCDTHT (▪). In this experiment, the viability of the cell cultures was estimated by Trypan blue exclusion using hematocytometer, a technique well known to one having ordinary skill in the art. Three independently treated cell cultures, involving at least 300 cells for each treatment, were analyzed. The experimental error is indicated as std. dev.

[2] = CisPt 2 mg/kg i.p. and/or CCDTHT 4.6 mg/kg s.c., once daily

CC[N+](C)(CC)CCOCc1ccc2sc3ccccc3c(=O)c2c1.[I-] [CCDTHT, N,N-diethyl-N-methyl-2-[(9-oxo-9H-thioxanthen-2-yl)methoxy]-ethanaminium iodide]
survival (MXT tumor; CisPt 2 mg/kg and/or CCDTHT 4.6 mg/kg (groups 2, 4, 5)): 30.6 ± 3.2 days
Tumor volume, Day 14 (MXT tumor; [2]): 4.14 ± 0.71 cm^3
Tumor volume, Day 18 (MXT tumor; [2]): 6.62 ± 0.43 cm^3
Tumor volume, Day 21 (MXT tumor; [2]): 9.35 ± 0.69 cm^3
Tumor volume, Day 7 (MXT tumor; CisPt 2 mg/kg i.p. and/or CCDTHT 4.6 mg/kg s.c., start of treatment): 0.43 ± 0.07 cm^3
number of viable cancer cells, HL-60, HT-168, PC-3 and T47D ([1]; 50-75 μM, four days): strongly decreased
inhibition at 25 µM ([1]; Homo sapiens, 25 μM, 96 hours, Trypan blue, read-out: inhibition of cell proliferation, HL60, HT-168, PC-3 and T47D cells): 40 to 55%
cytotoxicity at 75 µM ([1]; Homo sapiens, 75 μM, 96 hours, Trypan blue, read-out: decrease in the number of viable cells, HL60, HT-168, PC-3 and T47D cells): 65 to 85%
